Read-outs that look alike come from different tables or passages of the source.

The subject of assay [1] is T-Rex 293 cell line SC3 cells lacking increased expression of androgen receptor protein. Briefly: Cellular growth inhibition assay, T-Rex 293 SC3 cells without doxycycline (CellTiter-Glo, 72 hours). The class given is cell-based. The following applies: T-Rex 293 cell line SC3 cells not exposed to doxycycline (lacking increased androgen receptor expression). In short, it runs like this:
(§1)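 Growth inhibition is measured in an inducible AR-expressing T-Rex 293 clone, SC3, cultured with or without 10 ng/mL doxycycline in hormone-depleted medium. Test compounds are applied for 72 hours. GI50 values derive from CellTiter-Glo 2.0 signal fitted by four-parameter regression.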

Assay [2] deals with VCaP cells. In words: Cellular growth inhibition assay for VCaP cells (CellTiter-Glo, 72 hours). The class given is cell-based, human. In short, it runs like this: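 Luminescent viability signal after 72 h of compound exposure gave GI50 values by four-parameter nonlinear regression. Compounds were added in 0.5% DMSO to cells plated 24 h earlier at 5000/well in DMEM containing 10% FBS.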

The subject of assay [3] is T-Rex 293 cell line SC3 cells having increased expression of androgen receptor protein due to exposure to doxycycline. In words: Cellular growth inhibition assay, T-Rex 293 SC3 cells with doxycycline (CellTiter-Glo, 72 hours). The class given is cell-based. Particulars: T-Rex 293 SC3 cells with increased androgen receptor expression due to doxycycline (10 ng/mL). The gist of the method: as §1

For the compound `Cc1sc2c(c1C)C(c1ccc(OCC3CC4(CCCN(c5ccc(C(=O)N[C@H]6CC[C@H](Oc7ccc(C#N)c(Cl)c7)CC6)nn5)C4)C3)cn1)=NC1(CC1)c1nnc(C)n1-2` (stereo partly drawn) [I-561], the GI50 in assay [1] was 500 to 1500 nM; in assay [2] it was above 3000 nM; in assay [3] (72 h), below 500 nM.

Turning to `Cc1sc2c(c1C)C(c1ccc(N3CC(CC4CCCN(c5ccc(C(=O)N[C@H]6CC[C@H](Oc7ccc(C#N)c(Cl)c7)CC6)nn5)C4)C3)cc1)=NC1(CC1)c1nnc(C)n1-2` (stereo partly drawn) [I-562], the results for the concentration for 50% growth inhibition (GI50) in assay [1] (72 h), in assay [2] and in assay [3] were below 500 nM, above 3000 nM and below 500 nM, respectively.

For `Cc1sc2c(c1C)C(c1ccc(N3CCC4CN(c5ccc(C(=O)N[C@H]6CC[C@H](Oc7ccc(C#N)c(Cl)c7)CC6)nn5)CCC4C3)cc1)=NC1(CC1)c1nnc(C)n1-2` (stereo partly drawn) [I-563], the concentration for 50% growth inhibition (GI50) in assay [1] (72 h) is below 500 nM; in assay [2], 500 to 1500 nM; in assay [3], below 500 nM.

With `Cc1sc2c(c1C)C(c1ccc(N3CCC4CN(c5ccc(C(=O)N[C@H]6CC[C@H](Oc7ccc(C#N)c(Cl)c7)CC6)nn5)CCC4C3)cc1)=NC1(CC1)c1nnc(C)n1-2` (stereo partly drawn) [I-564], the values for the GI50 in assay [1], in assay [2] and in assay [3] were 500 to 1500 nM, above 3000 nM and below 500 nM, respectively.

As for `Cc1sc2c(c1C)C(c1ccc(N3CCC4CN(c5ccc(C(=O)N[C@H]6CC[C@H](Oc7ccc(C#N)c(Cl)c7)CC6)nn5)CCC4C3)cc1)=NC1(CC1)c1nnc(C)n1-2` (stereo partly drawn) [I-565], the results for the GI50 in assay [1], in assay [2] and in assay [3] were below 500 nM, above 3000 nM and below 500 nM, respectively.

Consider `COC[C@@H]1N=C(c2ccc(N3CCC4(CC3)CCN(c3ccc(C(=O)N[C@H]5CC[C@H](Oc6ccc(C#N)c(Cl)c6)CC5)nn3)C4)cc2)c2c(sc(C)c2C)-n2c(C)nnc21` [I-566], for which the GI50 was below 500 nM in assay [1] (72 h); below 500 nM in assay [2] (Homo sapiens, VCaP, 72 h); below 500 nM in assay [3] (72 h).

On to `COCC[C@@H]1N=C(c2ccc(N3CCC4(CC3)CCN(c3ccc(C(=O)N[C@H]5CC[C@H](Oc6ccc(C#N)c(Cl)c6)CC5)nn3)C4)cc2)c2c(sc(C)c2C)-n2c(C)nnc21` [I-567], for which the GI50 in assay [1] (72 h) is below 500 nM; in assay [2] (Homo sapiens, VCaP, 72 h) it was below 500 nM; in assay [3] (72 h), below 500 nM.

Turning to `COC[C@@H]1N=C(c2ccc(N3CCC4(CCCN(c5ccc(C(=O)N[C@H]6CC[C@H](Oc7ccc(C#N)c(Cl)c7)CC6)nn5)C4)CC3)cc2)c2c(sc(C)c2C)-n2c(C)nnc21` [I-568], the GI50 in assay [1] (72 h) is below 500 nM; in assay [2] (Homo sapiens, VCaP, 72 h) it was 1500 to 3000 nM; in assay [3] (72 h), below 500 nM.

As to `COCC[C@@H]1N=C(c2ccc(N3CCC4(CCCN(c5ccc(C(=O)N[C@H]6CC[C@H](Oc7ccc(C#N)c(Cl)c7)CC6)nn5)C4)CC3)cc2)c2c(sc(C)c2C)-n2c(C)nnc21` [I-569], the GI50 is above 3000 nM in assay [1] (72 h); above 3000 nM in assay [2] (Homo sapiens, VCaP, 72 h); below 500 nM in assay [3] (72 h).

Turning to `COCC1N=C(c2ccc(C#CC3CC4(C3)CN(c3ccc(C(=O)N[C@H]5CC[C@H](Oc6ccc(C#N)c(Cl)c6)CC5)nn3)C4)cc2)c2c(sc(C)c2C)-n2c(C)nnc21` (stereo partly drawn) [I-570], the GI50 in assay [1] was above 3000 nM; in assay [2] (Homo sapiens, VCaP, 72 h), below 500 nM; in assay [3] (72 h), below 500 nM.

Consider `COCC1N=C(c2ccc(C#CC3CC4(C3)CN(c3ccc(C(=O)N[C@H]5CC[C@H](Oc6ccc(C#N)c(Cl)c6)CC5)nn3)C4)cc2)c2c(sc(C)c2C)-n2c(C)nnc21` (stereo partly drawn) [I-571], for which the GI50 in assay [1], in assay [2] and in assay [3] was below 500 nM throughout.

Turning to `COCC[C@@H]1N=C(c2ccc(C#CC3CC4(C3)CN(c3ccc(C(=O)N[C@H]5CC[C@H](Oc6ccc(C#N)c(Cl)c6)CC5)nn3)C4)cc2)c2c(sc(C)c2C)-n2c(C)nnc21` [I-572], the GI50 in assay [1] (72 h) was below 500 nM; in assay [2] (Homo sapiens, VCaP, 72 h), below 500 nM; in assay [3] (72 h), below 500 nM.

Regarding `Cc1sc2c(c1C)C(c1ccc(C3CC(N4CCN(c5ccc(C(=O)N[C@H]6CC[C@H](Oc7ccc(C#N)c(Cl)c7)CC6)nn5)CC4)C3)cc1)=NC1(CC1)c1nnc(C)n1-2` (stereo partly drawn) [I-573], the GI50 in assay [1] (72 h) was below 500 nM; in assay [2] (Homo sapiens, VCaP, 72 h), below 500 nM; in assay [3] (72 h), below 500 nM.

With `CC[C@@H]1N=C(c2ccc(C3CCC4(CCN(c5ccc(C(=O)N[C@H]6CC[C@H](Oc7ccc(C#N)c(Cl)c7)CC6)nn5)CC4)C3)cc2)c2c(sc(C)c2C)-n2c(C)nnc21` (stereo partly drawn) [I-574], the GI50 in assay [1] (72 h) is above 3000 nM; in assay [2] (Homo sapiens, VCaP, 72 h), below 500 nM; in assay [3] (72 h), below 500 nM.

Turning to `Cc1sc2c(c1C)C(c1ccc(C3CCC4(CCN(c5ccc(C(=O)N[C@H]6CC[C@H](Oc7ccc(C#N)c(Cl)c7)CC6)nn5)CC4)C3)nc1)=N[C@@H](C)c1nnc(C)n1-2` (stereo partly drawn) [I-575], the GI50 in assay [1] (72 h) is below 500 nM; in assay [2] it was above 3000 nM; in assay [3] it was below 500 nM.

On to `Cc1sc2c(c1C)C(c1ccc(N3CC(CC4CCCN(c5ccc(C(=O)N[C@H]6CC[C@H](Oc7ccc(C#N)c(Cl)c7)CC6)nn5)C4)C3)cc1)=N[C@@H](C)c1nnc(C)n1-2` (stereo partly drawn) [I-576], for which the GI50 is below 500 nM in assay [1] (72 h); below 500 nM in assay [2] (Homo sapiens, VCaP, 72 h); below 500 nM in assay [3] (72 h).

`Cc1sc2c(c1C)C(c1ccc(N3CC(CC4CCCN(c5ccc(C(=O)N[C@H]6CC[C@H](Oc7ccc(C#N)c(Cl)c7)CC6)nn5)C4)C3)cc1)=N[C@@H](C)c1nnc(C)n1-2` (stereo partly drawn) [I-577]: the results for the GI50 in assay [1], in assay [2] and in assay [3] were below 500 nM, 500 to 1500 nM and below 500 nM, respectively.

On to `Cc1sc2c(c1C)C(c1ccc(CC3CCC4(C3)CN(c3ccc(C(=O)N[C@H]5CC[C@H](Oc6ccc(C#N)c(Cl)c6)CC5)nn3)CCO4)cc1)=N[C@@H](C)c1nnc(C)n1-2` (stereo partly drawn) [I-578], for which the values for the GI50 in assay [1], in assay [2] and in assay [3] (72 h) were above 3000 nM, 500 to 1500 nM and below 500 nM, respectively.

`Cc1sc2c(c1C)C(c1ccc(CC3CCC4(C3)CN(c3ccc(C(=O)N[C@H]5CC[C@H](Oc6ccc(C#N)c(Cl)c6)CC5)nn3)CCO4)cc1)=N[C@@H](C)c1nnc(C)n1-2` (stereo partly drawn) [I-579]: the figures for the GI50 in assay [1], in assay [2] and in assay [3] were below 500 nM, 1500 to 3000 nM and below 500 nM, respectively.

As for `Cc1sc2c(c1C)C(c1ccc(CC3CCC4(C3)CN(c3ccc(C(=O)N[C@H]5CC[C@H](Oc6ccc(C#N)c(Cl)c6)CC5)nn3)CCO4)cc1)=N[C@@H](C)c1nnc(C)n1-2` (stereo partly drawn) [I-580], the GI50 in assay [1], in assay [2] and in assay [3] was below 500 nM each time.

As to `Cc1sc2c(c1C)C(c1ccc(CC3CCC4(C3)CN(c3ccc(C(=O)N[C@H]5CC[C@H](Oc6ccc(C#N)c(Cl)c6)CC5)nn3)CCO4)cc1)=N[C@@H](C)c1nnc(C)n1-2` (stereo partly drawn) [I-581], the GI50 in assay [1], in assay [2] and in assay [3] was below 500 nM in each case.

`Cc1sc2c(c1C)C(c1ccc(CC3CCC4(CCCN(c5ccc(C(=O)N[C@H]6CC[C@H](Oc7ccc(C#N)c(Cl)c7)CC6)nn5)C4)C3)cc1)=N[C@@H](C)c1nnc(C)n1-2` (stereo partly drawn) [I-582]: the GI50 was below 500 nM in assay [1]; above 3000 nM in assay [2] (Homo sapiens, VCaP, 72 h); below 500 nM in assay [3] (72 h).

As for `Cc1sc2c(c1C)C(c1ccc(CC3CCC4(CCCN(c5ccc(C(=O)N[C@H]6CC[C@H](Oc7ccc(C#N)c(Cl)c7)CC6)nn5)C4)C3)cc1)=N[C@@H](C)c1nnc(C)n1-2` (stereo partly drawn) [I-583], the 50% growth inhibitory concentration (GI50) in assay [1] was below 500 nM; in assay [2] it was 1500 to 3000 nM; in assay [3] it was below 500 nM.

On to `Cc1sc2c(c1C)C(c1ccc(CC3CCC4(CCCN(c5ccc(C(=O)N[C@H]6CC[C@H](Oc7ccc(C#N)c(Cl)c7)CC6)nn5)C4)C3)cc1)=N[C@@H](C)c1nnc(C)n1-2` (stereo partly drawn) [I-584], for which the figures for the GI50 in assay [1], in assay [2] and in assay [3] were below 500 nM, 1500 to 3000 nM and below 500 nM, respectively.

Values taken from patent publication US20260109707A1, “HETEROBIFUNCTIONAL COMPOUNDS AND METHODS OF TREATING DISEASE” (Halda Therapeutics OpCo. Inc., priority 2022, published 2026).
